Experimental data from paper PMC6792352, “Limited Chemical Structural Diversity Found to Modulate Thyroid Hormone Receptor in the Tox21 Chemical Library” (Environmental Health Perspectives, 2019).
Counter-ions that a name gives are not always drawn. Like-named read-outs stand apart in the source and are kept apart here.

Key:
GH3-TRE-Luc cell line = details: read-out: AC50 (uM) modified / 1000, viability, 1 nM T3 present, 24 h
in vitro = details: rat, gh3-tre-luc cells, AC50 (uM) modified / 1000

O=c1[nH]c2ccccc2n1C1CCN(CCCC(c2ccc(F)cc2)c2ccc(F)cc2)CC1 [Pimozide]
CC50 (GH3-TRE-Luc cell line; Tox21_110001=Tox21_110224): 7.02 µM | CC50 at 24 h (in vitro): 8.93 µM

CCCCC/C=C\C/C=C\CCCCCCCC(=O)OC [Methyl linoleate]
CC50 (GH3-TRE-Luc cell line; Tox21_110001=Tox21_302917): 74 µM | CC50 at 24 h (in vitro): > 90 µM

Oc1ccc(C(c2ccc(O)cc2)(C(F)(F)F)C(F)(F)F)cc1 [Bisphenol AF]
CC50 (GH3-TRE-Luc cell line; Tox21_110001=Tox21_303641): 54.4 µM | CC50 at 24 h (in vitro): 32.9 µM

Clc1ccc(C(c2ccc(Cl)cc2)C(Cl)Cl)cc1 [p,p'-DDD]
CC50 (GH3-TRE-Luc cell line; Tox21_110001=Tox21_300191): 35.5 µM | CC50 at 24 h (in vitro): 27.9 µM

C#C[C@]1(OC(C)=O)CC[C@H]2[C@@H]3CCC4=C[C@@H](OC(C)=O)CC[C@@H]4[C@H]3CC[C@@]21C [Ethynodiol diacetate]
CC50 (GH3-TRE-Luc cell line; Tox21_110001=Tox21_112924): 44.6 µM | CC50 at 24 h (in vitro): 45 µM

O=C1NCCN1CCN1CCC(c2cn(-c3ccc(F)cc3)c3ccc(Cl)cc23)CC1 [Sertindole]
CC50 (GH3-TRE-Luc cell line; Tox21_110001=Tox21_113421): 6.74 µM | CC50 at 24 h (in vitro): 5.55 µM

c1ccc(Nc2cccc3ccccc23)cc1 [N-Phenyl-1-naphthylamine]
CC50 (GH3-TRE-Luc cell line; Tox21_110001=Tox21_303075): 61.1 µM | CC50 at 24 h (in vitro): 64.9 µM

CCCCCCCCCCCCCCCC[N+](C)(C)Cc1ccccc1 [Benzylhexadecyldimethylammonium chloride]
CC50 (GH3-TRE-Luc cell line; Tox21_110001=Tox21_112574): 13.4 µM | CC50 at 24 h (in vitro): 21.5 µM

C=CC(=O)OCCCCCCOC(=O)C=C [1,6-Hexanediol diacrylate]
CC50 (GH3-TRE-Luc cell line; Tox21_110001=Tox21_303168): 46.1 µM | CC50 at 24 h (in vitro): 57.6 µM

Oc1ccccc1O [Catechol]
CC50 (GH3-TRE-Luc cell line; Tox21_110001=Tox21_300153): 32.6 µM | CC50 at 24 h (in vitro): 33.7 µM

CC(C)=CC1C(C(=O)OCc2coc(Cc3ccccc3)c2)C1(C)C (centres unmarked) [Resmethrin]
CC50 (GH3-TRE-Luc cell line; Tox21_110001=Tox21_300920): 55.3 µM | CC50 at 24 h (in vitro): > 90 µM

CC(C)(C)c1ccc(O)c(C(C)(C)C)c1 [2,4-Di-tert-butylphenol]
CC50 (GH3-TRE-Luc cell line; Tox21_110001=Tox21_300114): 29.7 µM | CC50 at 24 h (in vitro): 47.6 µM

CC[n+]1c(-c2ccccc2)c2cc(N)ccc2c2ccc(N)cc21 [Ethidium bromide]
CC50 (GH3-TRE-Luc cell line; Tox21_110001=Tox21_111123): 37.9 µM | CC50 at 24 h (in vitro): 47.9 µM

CCCN(CCOc1c(Cl)cc(Cl)cc1Cl)C(=O)n1ccnc1 [Prochloraz]
CC50 (GH3-TRE-Luc cell line; Tox21_110001=Tox21_301179): 70.8 µM | CC50 at 24 h (in vitro): 81.4 µM

O=Nc1ccc(Nc2ccccc2)cc1 [4-Nitrosodiphenylamine]
CC50 (GH3-TRE-Luc cell line; Tox21_110001=Tox21_302822): 14.9 µM | CC50 at 24 h (in vitro): 8.75 µM

CCCCCCCCCCCCCCCC[N+](C)(C)CC [Ethylhexadecyldimethylammonium bromide]
CC50 (GH3-TRE-Luc cell line; Tox21_110001=Tox21_112326): 6.28 µM | CC50 at 24 h (in vitro): 11.9 µM

CNCCCC12CCC(c3ccccc31)c1ccccc12 [Maprotiline]
CC50 (GH3-TRE-Luc cell line; Tox21_110001=Tox21_110200): 11.7 µM | CC50 at 24 h (in vitro): 6.11 µM

CO/N=C1\C[C@]2(C[C@@H]3C[C@@H](C/C=C(\C)C[C@@H](C)/C=C/C=C4\CO[C@@H]5[C@H](O)C(C)=C[C@@H](C(=O)O3)[C@]45O)O2)O[C@H](/C(C)=C/C(C)C)[C@H]1C [Moxidectin]
CC50 (GH3-TRE-Luc cell line; Tox21_110001=Tox21_113093): 4.45 µM | CC50 at 24 h (in vitro): 5.14 µM

C[C@H](CCC(=O)O)[C@H]1CC[C@H]2[C@@H]3CC[C@@H]4C[C@H](O)CC[C@]4(C)[C@H]3CC[C@]12C [Lithocholic acid]
CC50 (GH3-TRE-Luc cell line; Tox21_110001=Tox21_302791): 47.9 µM | CC50 at 24 h (in vitro): 24.5 µM

C(=NC1CCCCC1)=NC1CCCCC1 [Dicyclohexylcarbodiimide]
CC50 (GH3-TRE-Luc cell line; Tox21_110001=Tox21_303237): 49.8 µM | CC50 at 24 h (in vitro): > 90 µM

C=CC(=O)OCC(CO)(COC(=O)C=C)COC(=O)C=C [Pentaerythritol triacrylate]
CC50 (GH3-TRE-Luc cell line; Tox21_110001=Tox21_303252): 2.61 µM | CC50 at 24 h (in vitro): 1.77 µM

Oc1c(Cl)c(Cl)c(Cl)c(Cl)c1Cl [Pentachlorophenol]
CC50 (GH3-TRE-Luc cell line; Tox21_110001=Tox21_300023): 29.7 µM | CC50 at 24 h (in vitro): 34.5 µM

CC(CN1c2ccccc2Sc2ccccc21)N(C)C (centres unmarked) [Promethazine hydrochloride]
CC50 (GH3-TRE-Luc cell line; Tox21_110001=Tox21_302878): 23 µM | CC50 at 24 h (in vitro): 12.2 µM

c1cc(OCC2CO2)ccc1Cc1ccc(OCC2CO2)cc1 (centres unmarked) [Bis[4-(glycidyloxy)phenyl]methane]
CC50 (GH3-TRE-Luc cell line; Tox21_110001=Tox21_303420): 48.6 µM | CC50 at 24 h (in vitro): 42.4 µM

CCCCCC(=O)O[C@]1(C(C)=O)CC[C@H]2[C@@H]3CCC4=CC(=O)CC[C@]4(C)[C@H]3CC[C@@]21C [Hydroxyprogesterone caproate]
CC50 (GH3-TRE-Luc cell line; Tox21_110001=Tox21_302333): 26.2 µM | CC50 at 24 h (in vitro): 17.9 µM

CC(=O)[C@]1(O)Cc2c(O)c3c(c(O)c2[C@@H](O[C@H]2C[C@H](N)[C@H](O)[C@H](C)O2)C1)C(=O)c1c(O)cccc1C3=O [Carminomycin]
CC50 (GH3-TRE-Luc cell line; Tox21_110001=Tox21_111978): 0.212 µM | CC50 at 24 h (in vitro): 0.177 µM

CC(C)(c1ccc(OCC2CO2)cc1)c1ccc(OCC2CO2)cc1 (centres unmarked) [Bisphenol A diglycidyl ether]
CC50 (GH3-TRE-Luc cell line; Tox21_110001=Tox21_303315): 61.9 µM | CC50 at 24 h (in vitro): 66.1 µM

O=C1c2ccccc2C(=O)N1SC1CCCCC1 [N-(Cyclohexylthio)phthalimide]
CC50 (GH3-TRE-Luc cell line; Tox21_110001=Tox21_303596): 23.2 µM | CC50 at 24 h (in vitro): 37 µM

CCN(CC)C(=S)S [Sodium diethyldithiocarbamate]
CC50 (GH3-TRE-Luc cell line; Tox21_110001=Tox21_112412): 1.18 µM

CCCCCCCCCCCCCC[P+](CCCCCC)(CCCCCC)CCCCCC [Trihexyltetradecylphosphonium dicyanamide]
CC50 (GH3-TRE-Luc cell line; Tox21_110001=Tox21_202613): 2.76 µM

CC[C@H]1OC(=O)[C@H](C)[C@@H](O[C@H]2C[C@@](C)(OC)[C@@H](O)[C@H](C)O2)[C@H](C)[C@@H](O[C@@H]2O[C@H](C)C[C@H](N(C)C)[C@H]2O)[C@](C)(O)C[C@@H](C)/C(=N\OCOCCOC)[C@H](C)[C@@H](O)[C@]1(C)O [Roxithromycin]
CC50 (GH3-TRE-Luc cell line; Tox21_110001=Tox21_301835): 31 µM

CC(C)(C)c1ccc(C(O)CCCN2CCC(C(O)(c3ccccc3)c3ccccc3)CC2)cc1 (centres unmarked) [Terfenadine]
CC50 (GH3-TRE-Luc cell line; Tox21_110001=Tox21_110296): 5.45 µM

CCC(C)(C)C(=O)O[C@H]1C[C@@H](C)C=C2C=C[C@H](C)[C@H](CC[C@@H]3C[C@@H](O)CC(=O)O3)[C@H]21 [Simvastatin]
CC50 (GH3-TRE-Luc cell line; Tox21_110001=Tox21_300400): 72.4 µM

NC[C@H]1O[C@H](O[C@H]2[C@H](O)[C@@H](O[C@H]3O[C@H](CO)[C@@H](O)[C@H](N)[C@H]3O)[C@H](N)C[C@@H]2N)[C@H](O)[C@@H](O)[C@@H]1O [Kanamycin A sulfate]
CC50 (GH3-TRE-Luc cell line; Tox21_110001=Tox21_202817): 3.08 µM

N#Cc1c(Cl)c(Cl)c(Cl)c(C#N)c1Cl [Chlorothalonil]
CC50 (GH3-TRE-Luc cell line; Tox21_110001=Tox21_201687): 0.523 µM | CC50 (GH3-TRE-Luc cell line; Tox21_110001=Tox21_300862): 0.188 µM

CCCCCCCCCCCCCCCCn1cc[n+](C)c1 [1-Hexadecyl-3-methylimidazolium chloride]
CC50 (GH3-TRE-Luc cell line; Tox21_110001=Tox21_200600): 21.4 µM

Clc1ccc(COC(Cn2ccnc2)c2ccc(Cl)cc2Cl)cc1 (centres unmarked) [Econazole nitrate]
CC50 (GH3-TRE-Luc cell line; Tox21_110001=Tox21_110852): 13.9 µM | CC50 (GH3-TRE-Luc cell line; Tox21_110001=Tox21_200771): 23.8 µM | CC50 (GH3-TRE-Luc cell line; Tox21_110001=Tox21_303391): 29.6 µM
